Assay results published in patent US20160257697A1, “THIOPHENE-SUBSTITUTED TETRACYCLIC COMPOUNDS AND METHODS OFUSE THEREOF FOR THE TREATMENT OF VIRAL DISEASES” (priority 2013, published 2016).

Key:
Experiment in all cases: microbe, parasite or virus in culture
Assay type in all cases: cell-based, Hepatitis C virus (HCV)
HCV replicon 1AY93H = conditions: replicon 1AY93H; Replicon Assay A; read-out: 1A Y93H IC50
Summary of the method: (§1)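 HCV replicon RNA levels were quantified by TaqMan RT-PCR after 3-day compound exposure (0.5% DMSO, 5% FBS). Cyclophilin RNA, co-amplified in the same reaction, served as endogenous control; Ct values were converted to RNA amounts using linear regression standard curves.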

HCV replicon 1A = conditions: replicon 1A; Replicon Assay A
Summary of the method: as §1

HCV replicon 2B = conditions: replicon 2B; Replicon Assay A; read-out: 2B IC50
Summary of the method: as §1

HCV replicon 1AQ30D = conditions: replicon 1AQ30D; Replicon Assay B; read-out: 1A Q30D IC50
HCV replicon 1B = conditions: replicon 1B; Replicon Assay B

SMILES: COC(=O)N[C@H](C(=O)N1[C@@H]2C[C@@H]2C[C@H]1c1ncc(-c2ccc3c(c2)OC(c2ccc(C4CC4)s2)n2c-3cc3cc(-c4cnc([C@@H]5C[C@H]6C[C@H]6N5C(=O)[C@@H](NC(=O)OC)C(C)C)[nH]4)ccc32)[nH]1)C(C)C (single isomer, unassigned) [Compound 8]
- IC50 (HCV replicon 1AY93H): 0.33 nM
- IC50 (HCV replicon 1A): 0.0174 nM
- IC50 (HCV replicon 2B): 0.14 nM
- IC50 (HCV replicon 1AQ30D): 0.47 nM
- IC50 (HCV replicon 1B): 0.0027 nM
